One data set deals with H1975 cells. The experiment in a line: Wound-healing (cell scratching) assay. The class given is cell-based, human. The conditions noted are these: H1975, 48 h; PBS group about 70%. Here is the method:
The migration and invasion of tumor cells directly contribute to metastasis. Metastasis is the leading cause of death in cancer patients. To determine the ability of 9j to inhibit tumor cell migration, the cell scratching assay was performed. Following scratching, phase contrast pictures were taken of the scratched and healing cell monolayers.
H1975 cells were plated in a six-well culture dish at 5 × 10^4 cells/dish and grown for 24 h, and […]. The medium was then replaced with a serum-free 1640 medium and treated with compound 9j at the indicated concentrations for another 24 h or 48 h. After the samples were washed with phosphate buffer solution (PBS), the cell images were immediately detected by a Zeiss LSM 570 laser scanning confocal microscope (Carl Zeiss, Jena, Germany).

Data set [1] has as its system HLF (human embryonic lung fibroblast). As to the kind of experiment: Cytotoxicity test on nontumorigenic cells, HLF. The class given is cell-based. From the text: (§1) It is critical to evaluate the balance between the safety and efficacy of drugs for the development of new drugs; thus, we then conducted a cytotoxicity test on […] types of nontumorigenic cell lines from different origins, including LO2 (human normal liver cells), HK2 (human kidney proximal convoluted tubule epithelial cells), HLF (human embryonic lung fibroblast), 293A (human embryonic kidney cells), and HUVEC (human umbilical vein endothelial cells). […] In addition, we evaluated the compound’s safety in vivo by performing acute toxicity tests in mice, and 9j was injected intravenously at concentrations of 100 mg/kg, 150 mg/kg, and 300 mg/kg.
(§2) A total of 7000 cells per well were seeded in a 96-well plate with at least three technical replicates; then, exposed to different concentrations (10, 5, 1, 0.1, 0.05, 0.01 uM) of the test compounds for 72 h. After the treatment, CCK8 (Sigma, St. Louis, MO, USA) was added to each well under sterile conditions (to a final concentration of 10% of the total volume) and the plates were incubated for 2–4 h at 37 °C. Absorbance was measured at 450 nm in a microplate reader.

In a further data set the test system is p-AKT. As to the kind of experiment: Western blot, p-AKT. The class given is cell-based, human. The conditions noted are these: WB, 5, 10 and 100 nM, 3 h treatment. Here is the method:
(§3) Four kinases (EGFR, EGFR^L858R/T790M, ALK, and EML4-ALK) were tested using an ELISA assay. […] There was no effect on the wild-type EGFR or ALK kinases triggered by the compound. Consequently, the selection of the compound was good as both compounds balanced IC50 against EGFR and ALK, respectively. […] Following that, fluorescence assays were used to measure the phosphorylation of the EGFR and ALK protein affect with compound 9j at the cellular level. […] Next, WB assay was used to test the protein expression of H1975 and H2228 cells at the concentration of 5, 10, and 100 nM.
(§4) H1975 (H2228) cells seeded in 60 mm dishes at a density of 5 × 10^5 cells/well were incubated with or without compound 9j (0, 5, 10, 100 nM) for 2–4 h. After treatment, cells were stained as previously described.

For data set [2], the system named is nontumorigenic cell lines.
Source text: as §1, §2

In the next data set the test system is H2228 (EML4-ALK) cells. As to the kind of experiment: CCK8 antiproliferative assay, H2228 cells. The class given is cell-based, human. The following applies: Homo sapiens, NCI-H2228, 72 h, CCK8 assay, 72 h, H2228 (EML4-ALK); read-out: IC50 H2228. The text has this:
The human cancer cell lines (H1975, H2228) used in this study were purchased from the Guangzhou ginny ou biotechnology Co., Ltd. (Guangzhou, China). The human cancer cell lines (NCI-H522) used in this study were purchased from the Shenzhen Haodi Huatuo Biotechnology Co., LTD (Shenzhen, China). The human cancer cell lines (LOVO, HLF, BJ, LO2) used in this study were purchased from the Laboratory Animal Service Center at Sun Yat-sen University (Guangzhou, China). […] Cell lines LOVO, HLF, BJ, and LO2 were cultivated in DMEM containing 10% (v/v) heat-inactivated fetal bovine serum (FBS), 100 units/mL penicillin, and 100 μg/mL streptomycin.

Data set [3] deals with HUVEC (human umbilical vein endothelial cells). The experiment in a line: Cytotoxicity test on nontumorigenic cells, HUVEC. Format: cell-based.
Source text: as §1, §2

A further data set has as its target ALK wild-type kinase (Homo sapiens, UniProt Q9UM73). The experiment in a line: Kinase ELISA assay, wild-type ALK. The class given is biochemical. Here is the method:
as §3

Data set [4] deals with 293A (human embryonic kidney cells). As to the kind of experiment: Cytotoxicity test on nontumorigenic cells, 293A. The class given is cell-based.
Source text: as §1, §2

The subject of another data set is p-EGFR. As to the kind of experiment: Western blot, p-EGFR. The following applies: WB, 5, 10 and 100 nM, 3 h treatment. Format: cell-based, human. Here is the method: as §3, §4
In data set [5] the test system is phosphorylated EGFR (p-EGFR). The experiment in a line: Immunofluorescence assay of phosphorylated EGFR. Format: cell-based, human. The following applies: fluorescence assay, treatment for 2 to 4 h. Here is the method:
as §3
Figure 2 (A) The activity of compound 9j against four kinases (EGFR, ALK, EGFR ^L858R T790M, and EML4-ALK). (B) H1975 and H2228 cells were treated with 9j for 2–4 h; the staining for phosphorylated EGFR (p-EGFR) and phosphorylated ALK (p-ALK) was shown as red fluorescence. (C) WB analysis of phosphorylated proteins in drug-treated H1975 and H2228 cells.

In another data set the target is EGFR^L858R/T790M (Homo sapiens, UniProt P00533, L858R/T790M). The experiment in a line: Kinase ELISA assay, EGFR L858R/T790M. The class given is biochemical. The conditions noted are these: read-out: IC50 against EGFR^L858R/T790M. On the procedure:
as §3

In the next data set the test system is H522 cells. As to the kind of experiment: CCK8 antiproliferative assay, H522 cells. The class given is cell-based. The conditions noted are these: Homo sapiens, NCI-H522, 72 h. The text has this:
The human cancer cell lines (H1975, H2228) used in this study were purchased from the Guangzhou ginny ou biotechnology Co., Ltd. (Guangzhou, China). The human cancer cell lines (NCI-H522) used in this study were purchased from the Shenzhen Haodi Huatuo Biotechnology Co., LTD (Shenzhen, China). The human cancer cell lines (LOVO, HLF, BJ, LO2) used in this study were purchased from the Laboratory Animal Service Center at Sun Yat-sen University (Guangzhou, China). Cell lines were cultivated in 1640 containing 10% (v/v) heat-inactivated fetal bovine serum (FBS), 100 units/mL penicillin, and 100 μg/mL streptomycin. Cell lines LOVO, HLF, BJ, and LO2 were cultivated in DMEM containing 10% (v/v) heat-inactivated fetal bovine serum (FBS), 100 units/mL penicillin, and 100 μg/mL streptomycin.

Where only a bound is given, the exact number is not on record here.

Sequence of EGFR^L858R/T790M (P00533 25-1210 T790M/L858R): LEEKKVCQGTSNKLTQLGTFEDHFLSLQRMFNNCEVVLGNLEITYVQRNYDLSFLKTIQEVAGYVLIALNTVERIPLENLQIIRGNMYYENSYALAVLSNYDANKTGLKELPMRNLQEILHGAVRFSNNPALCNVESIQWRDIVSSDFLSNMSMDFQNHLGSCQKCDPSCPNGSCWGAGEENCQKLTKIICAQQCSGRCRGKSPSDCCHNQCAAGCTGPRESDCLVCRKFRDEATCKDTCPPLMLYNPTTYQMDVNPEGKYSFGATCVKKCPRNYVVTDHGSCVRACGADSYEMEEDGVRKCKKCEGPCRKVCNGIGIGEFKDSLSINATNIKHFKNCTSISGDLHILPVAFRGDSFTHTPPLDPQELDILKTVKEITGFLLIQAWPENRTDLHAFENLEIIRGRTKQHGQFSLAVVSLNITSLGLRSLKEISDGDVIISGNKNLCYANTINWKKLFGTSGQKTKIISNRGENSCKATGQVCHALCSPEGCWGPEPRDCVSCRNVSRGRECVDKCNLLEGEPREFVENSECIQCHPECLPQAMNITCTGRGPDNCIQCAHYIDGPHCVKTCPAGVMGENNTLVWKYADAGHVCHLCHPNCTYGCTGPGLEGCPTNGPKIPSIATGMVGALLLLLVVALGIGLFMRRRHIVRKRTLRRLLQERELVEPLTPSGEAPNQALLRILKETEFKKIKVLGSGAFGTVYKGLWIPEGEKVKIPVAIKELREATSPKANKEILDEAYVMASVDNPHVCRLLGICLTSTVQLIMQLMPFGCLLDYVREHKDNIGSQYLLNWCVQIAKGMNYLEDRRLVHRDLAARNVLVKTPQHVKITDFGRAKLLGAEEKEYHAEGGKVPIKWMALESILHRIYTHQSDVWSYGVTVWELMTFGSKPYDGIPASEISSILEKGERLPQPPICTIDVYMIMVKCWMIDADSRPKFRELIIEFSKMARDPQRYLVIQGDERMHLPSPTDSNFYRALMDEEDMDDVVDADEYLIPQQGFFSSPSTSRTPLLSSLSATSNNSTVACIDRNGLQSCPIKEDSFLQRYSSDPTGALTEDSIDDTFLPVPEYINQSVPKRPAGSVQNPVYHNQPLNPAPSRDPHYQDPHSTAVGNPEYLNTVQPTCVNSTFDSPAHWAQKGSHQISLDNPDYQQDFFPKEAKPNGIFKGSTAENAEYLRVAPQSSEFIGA
Sequence of ALK wild-type kinase (Q9UM73 19-1620): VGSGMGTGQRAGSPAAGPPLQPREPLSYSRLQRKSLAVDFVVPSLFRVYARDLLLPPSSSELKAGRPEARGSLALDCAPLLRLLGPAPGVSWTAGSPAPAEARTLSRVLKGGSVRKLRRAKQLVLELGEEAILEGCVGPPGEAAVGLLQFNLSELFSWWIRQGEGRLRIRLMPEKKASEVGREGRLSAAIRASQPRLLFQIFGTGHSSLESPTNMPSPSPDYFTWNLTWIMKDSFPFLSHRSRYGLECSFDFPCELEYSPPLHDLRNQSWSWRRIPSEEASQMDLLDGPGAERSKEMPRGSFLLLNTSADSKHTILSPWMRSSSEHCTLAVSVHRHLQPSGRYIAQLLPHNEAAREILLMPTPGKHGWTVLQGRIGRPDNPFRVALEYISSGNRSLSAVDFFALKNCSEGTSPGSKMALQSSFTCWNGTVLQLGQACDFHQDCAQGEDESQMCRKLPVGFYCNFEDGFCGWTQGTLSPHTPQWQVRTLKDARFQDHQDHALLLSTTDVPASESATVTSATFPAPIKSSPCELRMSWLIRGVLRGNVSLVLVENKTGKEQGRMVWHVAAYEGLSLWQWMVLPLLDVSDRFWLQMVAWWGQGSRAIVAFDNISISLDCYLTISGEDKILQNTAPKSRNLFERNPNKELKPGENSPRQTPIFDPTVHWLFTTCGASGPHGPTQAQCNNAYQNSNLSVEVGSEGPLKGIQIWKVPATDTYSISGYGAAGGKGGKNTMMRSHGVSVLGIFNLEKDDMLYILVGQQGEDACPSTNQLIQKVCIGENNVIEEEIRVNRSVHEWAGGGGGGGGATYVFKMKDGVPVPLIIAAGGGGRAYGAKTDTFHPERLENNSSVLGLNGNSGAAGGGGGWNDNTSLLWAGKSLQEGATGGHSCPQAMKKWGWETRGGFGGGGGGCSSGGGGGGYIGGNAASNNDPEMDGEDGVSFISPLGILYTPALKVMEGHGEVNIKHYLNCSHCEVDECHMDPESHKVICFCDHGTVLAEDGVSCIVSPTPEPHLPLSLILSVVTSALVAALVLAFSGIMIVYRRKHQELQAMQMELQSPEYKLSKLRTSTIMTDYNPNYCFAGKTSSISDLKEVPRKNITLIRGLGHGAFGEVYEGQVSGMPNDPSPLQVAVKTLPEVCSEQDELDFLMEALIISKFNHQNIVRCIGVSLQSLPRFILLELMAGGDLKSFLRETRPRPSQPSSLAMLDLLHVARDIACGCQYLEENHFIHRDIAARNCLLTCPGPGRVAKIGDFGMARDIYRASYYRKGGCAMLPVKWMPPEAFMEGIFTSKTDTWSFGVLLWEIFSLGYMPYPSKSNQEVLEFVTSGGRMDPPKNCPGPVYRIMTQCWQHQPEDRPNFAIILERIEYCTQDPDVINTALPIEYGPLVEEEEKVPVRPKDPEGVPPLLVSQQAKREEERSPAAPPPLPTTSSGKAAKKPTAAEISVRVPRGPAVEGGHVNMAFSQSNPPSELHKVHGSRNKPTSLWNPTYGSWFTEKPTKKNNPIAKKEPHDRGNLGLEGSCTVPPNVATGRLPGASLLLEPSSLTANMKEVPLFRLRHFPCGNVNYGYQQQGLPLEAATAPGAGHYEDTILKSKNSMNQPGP

In the case of `C=CC(=O)Nc1cc(Nc2ncc(Cl)c(Nc3ccc(Cl)cc3[S+]([O-])C(C)C)n2)c(OC)cc1C1CCN(C)CC1` (stereo not drawn) [9j, N-(5-((5-Chloro-4-((4-chloro-2-(isopropylsulfinyl)phenyl)amino)pyrimidin-2-yl)amino)-4-methoxy-2-(1-methylpiperidin-4-yl)phenyl)acrylamide], in the data set with H1975 cells, the scratch healing rate entry is “clearly decreased”. Moreover, the “Selectivity Ratio (IC50 human normal cells)/(IC50 H1975), HLF” value in data set [1] (HLF vs H1975) is recorded as 357.3. Further, the IC50 in data set [1] (Homo sapiens, Fibroblast, HLF, mean ± SE, read-out: Toxicity to normal cells, IC50 HLF) worked out at 27.87 ± 0.01 µM; in the data set on H2228 (EML4-ALK) cells, 0.0818 ± 0.02 µM; in data set [3] (Homo sapiens, HUVEC, mean ± SE, read-out: Toxicity to normal cells, IC50 HUVEC), 21.36 ± 0.06 µM; against ALK wild-type kinase, 0.13 ± 0.015 µM; in data set [4] (Homo sapiens, 293A, mean ± SE, read-out: Toxicity to normal cells, IC50 293A) it was 20 ± 0.05 µM; on EGFR^L858R/T790M, 0.0357 ± 0.0009 µM. In the data set on H522 cells, this molecule displayed an IC50 of over 10 µM. Besides, in the data set with p-AKT, the “expression of p-AKT” value is given as “inhibited”. The “toxicity toward the nontumorigenic cell lines” value in [2] is “very little apparent toxicity”. Further, the “Selectivity Ratio (IC50 human normal cells)/(IC50 H1975), HUVEC” value in [3] (HUVEC vs H1975) came to 273.8. The “Selectivity Ratio (IC50 human normal cells)/(IC50 H1975), 293A” value in data set [4] (293A vs H1975) turned out to be 255.5. In addition, the “expression of p-EGFR” value in the data set on p-EGFR was “inhibited”. Moreover, the “expression level of phosphorylated EGFR protein” value in data set [5] is given as “decreased significantly”.

Values taken from publication PMC10004195, “Novel Dual-Target Kinase Inhibitors of EGFR and ALK Were Designed, Synthesized, and Induced Cell Apoptosis in Non-Small Cell Lung Cancer” (Molecules, 2023).
